Common to all, as to assay: growth of human tumour cells (NCI), 48 h
Assay [1] deals with OVCAR-8.
The test system of assay [2] is COLO 205.
Assay [3] concerns A498.
For assay [4], the system named is M14.
The subject of assay [5] is HCT-15.
Assay [6] deals with U-251.
Assay [7] has as its system OVCAR-5.
Assay [8] has as its system LOX IMVI.
In assay [9] the test system is NCI/ADR-RES.
Assay [10] has as its system SK-MEL-28.
Assay [11] deals with SK-MEL-2.
Assay [12] concerns SNB-19.
Assay [13] concerns A549.
Assay [14] has as its system RXF 393.
Assay [15] deals with IGROV-1.
Assay [16] deals with SK-OV-3.
Assay [17] deals with NCI-H23.
In assay [18] the test system is HOP-92.
Assay [19] deals with MDA-MB-231.

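Briefly, cells in 96-well plates were exposed to five compound concentrations for 48 h, and endpoints were estimated by linear interpolation. GI50 = concentration required for 50% inhibition of growth.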 The source made the active and inactive calls. Cut-off read from the data, not from the text of the source: active = GI50 up to about 1.1 µM and inactive = higher.

Consider `O=C(Cc1ccc(Cl)c(Cl)c1)NCCCN1CCN(CCCN2CCCCC2)CC1`, for which the GI50 was 27.6 µM (inactive) in assay [1]; 13.2 µM (inactive) in [2]; 16.4 µM (inactive) in assay [3]; 19.3 µM (inactive) in assay [4]; 20.7 µM in assay [5]; 15.7 µM (inactive) in [6]. Besides, the GI50 was 20 µM (inactive) in [7]; 14.1 µM (inactive) in assay [8]; > 100 µM (inactive) in assay [9]; 2.56 µM (inactive) in [10]; 6.59 µM (inactive) in assay [11]; 26.9 µM (inactive) in assay [12]. For the same compound, the GI50 in assay [13] was 20.6 µM (inactive); in [14], 13.2 µM (inactive); in assay [15], 27.1 µM (inactive); in [16] it was 19.2 µM (inactive); in assay [17] it was 19.8 µM (inactive); in [18], 11.1 µM (inactive). The GI50 in [19] is 12 µM (inactive).
On to `O=[N+]([O-])C(/C=C(\Cl)[N+](=O)[O-])=C(N1CCCCC1)N1CCCCC1`, for which the GI50 is 44.8 µM (inactive) in [1]; 21.5 µM (inactive) in assay [2]; 41.4 µM (inactive) in assay [3]; 20.1 µM (inactive) in [4]; 25.3 µM in assay [5]; 65 µM (inactive) in assay [6]. For the same compound, the GI50 was 95.5 µM (inactive) in [7]; 55.7 µM (inactive) in [8]; 26.9 µM (inactive) in assay [9]; 70.8 µM (inactive) in assay [10]; 30 µM (inactive) in assay [11]; > 100 µM (inactive) in [12]. Besides, the GI50 in assay [13] is 15.6 µM (inactive); in assay [14], 49.4 µM (inactive); in [15], 21.9 µM (inactive); in assay [16], > 100 µM (inactive); in assay [17], 32.9 µM (inactive); in assay [18] it was > 100 µM (inactive). Also, the GI50 in [19] was 92 µM (inactive).
In the case of `Brc1c2c(c(Br)c3nsnc13)N=S=N2`, the GI50 in [1] was 25.6 µM (inactive); in assay [2], 41.5 µM (inactive); in assay [3] it was 42.6 µM (inactive); in [4], 22.5 µM (inactive); in [5] it was 24.6 µM; in assay [6], 23.1 µM (inactive). The GI50 was 27.6 µM (inactive) in [7]; 3.84 µM (inactive) in assay [8]; 26.7 µM (inactive) in [9]; 37.5 µM (inactive) in assay [10]; 20 µM (inactive) in assay [11]; 26.1 µM (inactive) in [12]. In addition, the GI50 in assay [13] is 78.5 µM (inactive); in assay [14] it was 15 µM (inactive); in assay [15], 23.5 µM (inactive); in assay [16] it was 46.2 µM (inactive); in assay [17], 23.3 µM (inactive); in [18], 17.4 µM (inactive). In addition, the GI50 in [19] was 23.4 µM (inactive).
Consider `CCOC(=O)N(NC(=O)NC(C)C)c1ccccc1`, for which the GI50 in assay [1] was > 100 µM (inactive); in [2], > 100 µM (inactive); in [3], > 100 µM (inactive); in assay [4], > 100 µM (inactive); in assay [5] it was > 100 µM; in assay [6] it was > 100 µM (inactive). In addition, the GI50 in assay [7], in assay [8], in assay [9], in assay [10], in assay [11] and in [12] was > 100 µM (inactive) throughout. Also, the GI50 in [13], in assay [14], in assay [15], in [16], in assay [17] and in assay [18] was > 100 µM (inactive) throughout. In addition, the GI50 in assay [19] was > 100 µM (inactive).
With `CC12c3c4ccc(C=O)c3Oc3ccc(C=O)c(c31)Oc1ccc(C=O)c(c12)O4`, the GI50 was > 25 µM (inactive) in assay [1]; > 25 µM (inactive) in assay [2]; > 25 µM (inactive) in assay [3]; > 25 µM (inactive) in assay [4]; > 25 µM in assay [5]; > 25 µM (inactive) in assay [6]. Also, the GI50 in assay [7], in [8], in [9], in assay [10], in assay [11] and in assay [12] was > 25 µM (inactive) in each case. In addition, the GI50 in [13], in assay [14], in assay [15], in [16], in assay [17] and in assay [18] was > 25 µM (inactive) in each case. Further, the GI50 in assay [19] is > 25 µM (inactive).
As for `C=CC(Br)(CBr)CCC(Br)C(C)C` (centres undefined), the GI50 was 2.44 µM (inactive) in assay [1]; 5.93 µM (inactive) in [2]; 18.7 µM (inactive) in assay [3]; 4.16 µM (inactive) in [4]; 4.66 µM in assay [5]; 3.66 µM (inactive) in assay [6]. Moreover, the GI50 was 15.6 µM (inactive) in assay [7]; 1.53 µM (inactive) in assay [8]; 7.85 µM (inactive) in [9]; 3.49 µM (inactive) in assay [10]; 2.96 µM (inactive) in assay [11]; 9.84 µM (inactive) in assay [12]. For the same compound, the GI50 in assay [13] was 14.1 µM (inactive); in assay [14], 5.89 µM (inactive); in [15] it was 3.46 µM (inactive); in [16], 16.6 µM (inactive); in [17], 6.82 µM (inactive); in assay [18] it was 10.7 µM (inactive). Besides, in assay [19], the GI50 was 4.27 µM (inactive).
As to `COc1ccccc1CC1(O)OC(=O)c2ccccc21` (centres undefined), the GI50 was > 100 µM (inactive) in assay [1]; > 100 µM (inactive) in assay [2]; > 100 µM (inactive) in assay [3]; > 100 µM (inactive) in assay [4]; > 100 µM in [5]; > 100 µM (inactive) in assay [6]. The GI50 in [7], in assay [8], in assay [9], in assay [10], in assay [11] and in [12] was > 100 µM (inactive) throughout. The GI50 in assay [13], in assay [14], in assay [15], in assay [16], in [17] and in assay [18] was > 100 µM (inactive) throughout. Further, the GI50 in [19] was > 100 µM (inactive).
Regarding `CN1C2CCC1CC(CCOC(c1ccc(F)cc1)c1ccc(F)cc1)C2` (centres undefined), the GI50 in assay [1] is 17.3 µM (inactive); in assay [2] it was 11.7 µM (inactive); in [3], 17.8 µM (inactive); in [4], 16.4 µM (inactive); in assay [5], 16.9 µM; in assay [6] it was 14.9 µM (inactive). The GI50 in assay [7] was 15.9 µM (inactive); in [8], 16.6 µM (inactive); in [9] it was 17.5 µM (inactive); in assay [10], 16 µM (inactive); in assay [11] it was 16.9 µM (inactive); in [12], 20.7 µM (inactive). In addition, the GI50 in assay [13] was 19.4 µM (inactive); in assay [14] it was 10.4 µM (inactive); in [15] it was 17.3 µM (inactive); in assay [16], 16.6 µM (inactive); in assay [17], 19.5 µM (inactive); in [18], 15.7 µM (inactive). The GI50 in assay [19] is 16.2 µM (inactive).
Take `CN1CN(c2ccccc2)C2(CCN(CCCC3(c4cccs4)OCCO3)CC2)C1=O`: the GI50 in [1] was > 100 µM (inactive); in [2], > 100 µM (inactive); in assay [3], > 100 µM (inactive); in assay [4] it was 96.8 µM (inactive); in assay [5] it was > 100 µM; in [6] it was > 100 µM (inactive). Also, the GI50 in assay [7], in assay [8], in assay [9], in assay [10], in assay [11] and in [12] was > 100 µM (inactive) in each case. Moreover, the GI50 was > 100 µM (inactive) in [13]; > 100 µM (inactive) in assay [14]; > 100 µM (inactive) in assay [15]; > 100 µM (inactive) in [16]; 77.6 µM (inactive) in assay [17]; 28.7 µM (inactive) in assay [18]. In addition, in assay [19], the GI50 is > 100 µM (inactive).
Take `C=CCCCCNC(=O)C[C@@H]1C2=C(CC[C@H]1O[Si](C)(C)C(C)(C)C)N1C(=O)CCC/C=C\C1C2` (some centres undefined): the GI50 in assay [1] was 14.9 µM (inactive); in assay [2], 13.6 µM (inactive); in assay [3] it was 15.2 µM (inactive); in assay [4] it was 14.3 µM (inactive); in [5], 14 µM; in assay [6], 13.5 µM (inactive). The GI50 is 16 µM (inactive) in [7]; 17 µM (inactive) in assay [8]; 12.2 µM (inactive) in assay [9]; 15 µM (inactive) in assay [10]; 13.2 µM (inactive) in assay [11]; 14.4 µM (inactive) in assay [12]. The GI50 in assay [13] is 13.1 µM (inactive); in [14], 10.8 µM (inactive); in assay [15], 15.6 µM (inactive); in assay [16], 16.6 µM (inactive); in assay [17] it was 13.7 µM (inactive); in assay [18] it was 11 µM (inactive). Further, in assay [19], the GI50 was 13.3 µM (inactive).
Consider `COc1ccc([C@]23CCN4COC[C@@H]([C@H]42)C2(CC3)OCC(C)(C)CO2)cc1OC`, for which the GI50 was > 100 µM (inactive) in assay [1]; > 100 µM (inactive) in assay [2]; > 100 µM (inactive) in [3]; > 100 µM (inactive) in assay [4]; > 100 µM in assay [5]; > 100 µM (inactive) in assay [6]. Also, the GI50 in assay [7], in assay [8], in [9], in [10], in assay [11] and in assay [12] was > 100 µM (inactive) in each case. Further, the GI50 in assay [13] was > 100 µM (inactive); in assay [14] it was > 100 µM (inactive); in assay [15], > 100 µM (inactive); in assay [16], > 100 µM (inactive); in assay [17], > 100 µM (inactive); in [18], 31.3 µM (inactive). Besides, the GI50 in assay [19] is > 100 µM (inactive).

The values above are taken from ChEMBL document CHEMBL1201862, “PubChem BioAssay data set” (2004).
